Measured values as given in patent US11078198B2 (BRISTOL-MYERS SQUIBB COMPANY, priority 2017, dated 2021).

Each compound was assayed against T1, human FXR (Homo sapiens, UniProt Q96RI1) (assay: transient human FXR/Gal4-luciferase reporter assay). Conditions: Gal4-hFXR transfected HEK293 reporter cells; relative to 8 μM GW-4064.
T1 construct: expressed in transfected cells; host or cells: HEK293 cells stably carrying a 5xGal4-response-element firefly luciferase reporter, transiently transfected with pcDNA3.1-Gal4-FXR
T1 sequence (Q96RI1 262-486 limits assumed): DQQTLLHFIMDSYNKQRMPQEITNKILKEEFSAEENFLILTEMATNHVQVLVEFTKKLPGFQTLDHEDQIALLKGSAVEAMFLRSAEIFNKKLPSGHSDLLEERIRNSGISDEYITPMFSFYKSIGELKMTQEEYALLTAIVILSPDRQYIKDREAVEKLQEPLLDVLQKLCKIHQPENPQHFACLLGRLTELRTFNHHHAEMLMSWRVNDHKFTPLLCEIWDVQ
Assay type: cell-based
In short: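 HEK293 cells stably carrying a 5×Gal4-response-element firefly luciferase reporter, transiently transfected overnight with a CMV-driven Gal4 DNA-binding domain/human FXR ligand-binding domain fusion.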

| Compound | EC50 [nM] |
| --- | --- |
| O=C(O)c1cnc2cc(N3CCC4(C=C(c5c(-c6ccccc6C(F)(F)F)noc5C5CC5)C4)CC3)ccc2n1 [Example 178, 6-(2-(5-Cyclopropyl-3-(2-(trifluoromethyl)phenyl)isoxazol-4-yl)-7-azaspiro[3.5]non-1-en-7-yl)quinoxaline-2-carboxylic acid] | 172 |
| Cc1cc(C(=O)O)nc2ccc(N3CCC4(C=C(c5c(-c6c(Cl)cncc6Cl)noc5C5CC5)C4)CC3)cc12 [Example 87, 6-(2-(5-Cyclopropyl-3-(3,5-dichloropyridin-4-yl)isoxazol-4-yl)-7-azaspiro[3.5]non-1-en-7-yl)-4-methylquinoline-2-carboxylic acid] | 76 |
| O=C(O)c1ccc2cc(N3CCC4(C=C(c5c(-c6c(F)cccc6F)noc5C5CC5)C4)CC3)ccc2n1 [Example 151, 6-(2-(5-Cyclopropyl-3-(2,6-difluorophenyl)isoxazol-4-yl)-7-azaspiro[3.5]non-1-en-7-yl)quinoline-2-carboxylic acid] | 1990 |
| Cc1cccc(Cl)c1-c1noc(C2CC2)c1C1=CC2(CCN(c3ccc4nc(C(=O)O)ccc4c3)CC2)C1 [Example 157, 6-(2-(3-(2-Chloro-6-methylphenyl)-5-cyclopropylisoxazol-4-yl)-7-azaspiro[3.5]non-1-en-7-yl)quinoline-2-carboxylic acid] | 223 |
| COc1cncc(F)c1-c1noc(C2CC2)c1C1=CC2(CCN(c3ccc4nc(C(=O)O)cc(C(F)(F)F)c4c3)CC2)C1 [Example 97, 6-(2-(5-Cyclopropyl-3-(3-fluoro-5-methoxypyridin-4-yl)isoxazol-4-yl)-7-azaspiro[3.5]non-1-en-7-yl)-4-(trifluoromethyl)quinoline-2-carboxylic acid] | 1940 |
| O=C(O)c1cc(F)c2nc(N3CCC4(C=C(c5c(C(F)F)cnn5-c5c(Cl)cncc5Cl)C4)CC3)sc2c1 [Example 216, 2-(2-(1-(3,5-Dichloropyridin-4-yl)-4-(difluoromethyl)-1H-pyrazol-5-yl)-7-azaspiro[3.5]non-1-en-7-yl)-4-fluorobenzo[d]thiazole-6-carboxylic acid] | 88 |
| O=C(O)c1cc(C(F)(F)F)c2cc(N3CCC4(C=C(c5c(-c6cnccc6C(F)(F)F)noc5C5CC5)C4)CC3)ccc2n1 [Example 90, 6-(2-(5-Cyclopropyl-3-(4-(trifluoromethyl)pyridin-3-yl)isoxazol-4-yl)-7-azaspiro[3.5]non-1-en-7-yl)-4-(trifluoromethyl)quinoline-2-carboxylic acid] | 195 |
| COc1cc2nc(N3CCC4(C=C(c5c(-c6c(Cl)cncc6Cl)noc5C5CC5)C4)CC3)sc2cc1C(=O)O [Example 51, 2-(2-(5-Cyclopropyl-3-(3,5-dichloropyridin-4-yl)isoxazol-4-yl)-7-azaspiro[3.5]non-1-en-7-yl)-5-methoxybenzo[d]thiazole-6-carboxylic acid] | 72 |
| O=C(O)c1cc2ccc(N3CCC4(C=C(c5c(-c6ncccc6Cl)noc5C5CC5)C4)CC3)cc2cn1 [Example 161, 7-(2-(3-(3-Chloropyridin-2-yl)-5-cyclopropylisoxazol-4-yl)-7-azaspiro[3.5]non-1-en-7-yl) isoquinoline-3-carboxylic acid] | 2320 |
| CS(=O)(=O)NC(=O)c1cc(OC(F)F)c2cc(N3CCC4(C=C(c5c(-c6cnccc6C(F)(F)F)noc5C5CC5)C4)CC3)ccc2n1 [Example 187, 6-(2-(5-Cyclopropyl-3-(4-(trifluoromethyl)pyridin-3-yl)isoxazol-4-yl)-7-azaspiro[3.5]non-1-en-7-yl)-4-(difluoromethoxy)-N-(methylsulfonyl)quinoline-2-carboxamide] | 63 |
| O=C(O)c1ccc(N2CCC3(C=C(c4c(-c5c(Cl)cccc5Cl)noc4C4CC4)C3)CC2)nn1 [Example 5, 6-(2-(5-Cyclopropyl-3-(2,6-dichlorophenyl)isoxazol-4-yl)-7-azaspiro[3.5]non-1-en-7-yl)pyridazine-3-carboxylic acid] | 313 |
| O=C(O)c1ccc(N2CCC3(C=C(c4c(-c5ncccc5Cl)noc4C4CC4)C3)CC2)nc1 [Example 171, 6-(2-(3-(3-Chloropyridin-2-yl)-5-cyclopropylisoxazol-4-yl)-7-azaspiro[3.5]non-1-en-7-yl)nicotinic acid] | 1870 |
| Cc1cccc(Cl)c1-c1noc(C2CC2)c1C1=CC2(CCN(c3nc4c(F)cc(C(=O)O)cc4s3)CC2)C1 [Example 103, 2-(2-(3-(2-Chloro-6-methylphenyl)-5-cyclopropylisoxazol-4-yl)-7-azaspiro[3.5]non-1-en-7-yl)-4-fluorobenzo[d]thiazole-6-carboxylic acid] | 19 |
| CS(=O)(=O)NC(=O)c1cc(OC(F)F)c2cc(N3CCC4(C=C(c5c(-c6c(Cl)cncc6Cl)noc5C5CC5)C4)CC3)ccc2n1 [Example 185, 6-(2-(5-Cyclopropyl-3-(3,5-dichloropyridin-4-yl)isoxazol-4-yl)-7-azaspiro[3.5]non-1-en-7-yl)-4-(difluoromethoxy)-N-(methylsulfonyl)quinoline-2-carboxamide] | 16 |
| COc1cncc(F)c1-c1noc(C2CC2)c1C1=CC2(CCN(c3nc4c(F)cc(C(=O)O)cc4s3)CC2)C1 [Example 69, 2-(2-(5-Cyclopropyl-3-(3-fluoro-5-methoxypyridin-4-yl)isoxazol-4-yl)-7-azaspiro[3.5]non-1-en-7-yl)-4-fluorobenzo[d]thiazole-6-carboxylic acid] | 730 |
| Cn1cc(C(=O)O)c2ccc(N3CCC4(CC3)CC(c3c(C(F)F)cnn3-c3ccccc3C(F)(F)F)C4)cc21 [Example 222, 6-(2-(4-(Difluoromethyl)-1-(2-(trifluoromethyl)phenyl)-1H-pyrazol-5-yl)-7-azaspiro[3. 5]nonan-7-yl)-1-methyl-1H-indole-3-carboxylic acid] | 275 |
| O=C(O)c1ccc2nc(N3CCC4(C=C(c5c(-c6c(Cl)cccc6Cl)noc5C5CC5)C4)CC3)oc2c1 [Example 114, 2-(2-(5-Cyclopropyl-3-(2,6-dichlorophenyl)isoxazol-4-yl)-7-azaspiro[3.5]non-1-en-7-yl)benzo[d]oxazole-6-carboxylic acid] | 127 |
| O=C(O)c1cc(C(F)(F)F)cc2nc(N3CCC4(C=C(c5c(-c6c(Cl)cncc6Cl)noc5C5CC5)C4)CC3)ccc12 [Example 60, 2-(2-(5-Cyclopropyl-3-(3,5-dichloropyridin-4-yl)isoxazol-4-yl)-7-azaspiro[3.5]non-1-en-7-yl)-7-(trifluoromethyl)quinoline-5-carboxylic acid] | 7.2 |
| O=C(NS(=O)(=O)C1CC1)c1cc(OC(F)F)c2cc(N3CCC4(C=C(c5c(-c6cnccc6C(F)(F)F)noc5C5CC5)C4)CC3)ccc2n1 [Example 188, 6-(2-(5-Cyclopropyl-3-(4-(trifluoromethyl)pyridin-3-yl)isoxazol-4-yl)-7-azaspiro[3.5]non-1-en-7-yl)-N-(cyclopropylsulfonyl)-4-(difluoromethoxy)quinoline-2-carboxamide] | 43 |
| Cn1cc(C(=O)O)c2cnc(N3CCC4(C=C(c5c(-c6c(Cl)cccc6Cl)noc5C5CC5)C4)CC3)cc21 [Example 117, 6-(2-(5-Cyclopropyl-3-(2,6-dichlorophenyl)isoxazol-4-yl)-7-azaspiro[3.5]non-1-en-7-yl)-1-methyl-1H-pyrrolo[3,2-c]pyridine-3-carboxylic acid] | 139 |
| CS(=O)(=O)NC(=O)c1cc(F)c2nc(N3CCC4(C=C(c5c(-c6c(Cl)cccc6Cl)noc5C5CC5)C4)CC3)sc2c1 [Example 180, 2-(2-(5-Cyclopropyl-3-(2,6-dichlorophenyl)isoxazol-4-yl)-7-azaspiro[3.5]non-1-en-7-yl)-4-fluoro-N-(methylsulfonyl)benzo[d]thiazole-6-carboxamide] | 35 |
| O=C(O)c1cc(F)c2nc(N3CCC4(C=C(c5c(-c6ncccc6Cl)noc5C5CC5)C4)CC3)sc2c1 [Example 46, 2-(2-(3-(3-Chloropyridin-2-yl)-5-cyclopropylisoxazol-4-yl)-7-azaspiro[3.5]non-1-en-7-yl)-4-fluorobenzo[d]thiazole-6-carboxylic acid] | 200 |
| O=C(O)c1ccc(N2CCC3(CC2)CC(c2c(-c4ccccc4C(F)(F)F)noc2C2CC2)C3)nc1 [Example 37] | 1400 |
| CS(=O)(=O)NC(=O)c1ccc2cc(N3CCC4(C=C(c5c(-c6c(Cl)cccc6Cl)noc5C5CC5)C4)CC3)ccc2n1 [Example 194, 6-(2-(5-Cyclopropyl-3-(2,6-dichlorophenyl)isoxazol-4-yl)-7-azaspiro[3.5]non-1-en-7-yl)-N-(methylsulfonyl)quinoline-2-carboxamide] | 255 |
| O=C(O)c1ccc(N2CCC3(C=C(c4c(C(F)F)cnn4-c4ccccc4C(F)(F)F)C3)CC2)nc1 [Example 223] | 205 |
| Cc1cccc(Cl)c1-c1noc(C2CC2)c1C1=CC2(CCN(c3ccc4cc(C(=O)O)nnc4c3)CC2)C1 [Example 57, 7-(2-(3-(2-Chloro-6-methylphenyl)-5-cyclopropylisoxazol-4-yl)-7-azaspiro[3.5]non-1-en-7-yl)cinnoline-3-carboxylic acid] | 227 |
| COc1ccc(C(=O)O)c2ccc(N3CCC4(C=C(c5c(-c6c(Cl)cncc6Cl)noc5C5CC5)C4)CC3)nc12 [Example 64, 2-(2-(5-Cyclopropyl-3-(3,5-dichloropyridin-4-yl)isoxazol-4-yl)-7-azaspiro[3.5]non-1-en-7-yl)-8-methoxyquinoline-5-carboxylic acid] | 49 |
| O=C(O)c1cc2ccc(N3CCC4(C=C(c5c(-c6ccccc6C(F)(F)F)noc5C5CC5)C4)CC3)cc2nn1 [Example 54, 7-(2-(5-Cyclopropyl-3-(2-(trifluoromethyl)phenyl)isoxazol-4-yl)-7-azaspiro[3.5]non-1-en-7-yl)cinnoline-3-carboxylic acid] | 177 |
